Assay results taken from patent publication US6833372B2, “Non-peptide GnRH agents, Pharmaceutical compositions, and methods for their use” (Pfizer, Inc., priority 2002, dated 2004).
≈ marks a conversion by molar mass, not a printed value. Read-outs that look alike come from different tables or passages of the source.

Legend:
[1] = In vitro metabolism: disappearance of parent compound in human liver microsomes; format: in vitro ADME; settings: 5 uM compound, 0.5 mg/ml protein, 2 mM NADPH, 30 minutes 37° C.
Description: (§1) Human, rat, dog, and monkey liver microsomes were isolated by differential centrifugation. Specimens of human liver were obtained from the International Institute for the Advancement of Medicine (Scranton, Pa.). The disappearance of the parent compound was studied in a mixture containing 5 uM compound, 0.5 mg/ml microsomal protein, and 2 mM NADPH in 50 mM K phosphate buffer, pH 7.4. Samples were incubated for 30 minutes at 37° C. The reaction was terminated by the addition of acetonitrile and compounds analyzed by LC-MS as described above.

[2] = Rat plasma % remain; format: in vitro ADME
[3] = target: T1, human GnRH receptors (Homo sapiens, UniProt P30968); experiment: Radioligand binding: inhibition of 125I-GnRH-A binding to human GnRH receptor membranes; settings: HEK 293 cell membranes
T1 construct: expressed in transfected cells; host or cells: HEK 293 cells, stably transfected; membranes
T1 sequence (P30968 1-328): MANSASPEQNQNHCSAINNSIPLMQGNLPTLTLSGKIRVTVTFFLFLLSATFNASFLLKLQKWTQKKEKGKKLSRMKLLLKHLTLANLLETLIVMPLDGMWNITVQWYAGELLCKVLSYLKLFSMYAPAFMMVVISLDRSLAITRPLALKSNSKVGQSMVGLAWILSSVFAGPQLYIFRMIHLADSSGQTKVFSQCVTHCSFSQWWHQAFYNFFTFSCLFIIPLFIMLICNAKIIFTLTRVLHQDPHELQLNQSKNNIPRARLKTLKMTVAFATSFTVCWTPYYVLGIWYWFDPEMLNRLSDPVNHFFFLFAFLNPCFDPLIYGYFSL
Summary of the method: (§2)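 Membranes from rat pituitaries, or HEK 293 cells stably expressing mouse or human receptor, incubated 1 hour at room temperature with ~0.04-0.06 nM radioligand (HEPES pH 7.4, EDTA, MgCl2, BSA) and competitor at 0.1-10,000 nM. Bound ligand collected by GF/C filtration and counted; Ki derived from IC50 by Cheng-Prusoff.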

[4] = In vitro metabolism: disappearance of parent compound in rat liver microsomes (male, female); format: in vitro ADME; settings: 5 uM compound, 30 minutes 37° C.; for Fem. Rat (FR) % rem. 30′: female rat liver microsomes; for Male Rat (MR) % rem. 30′: male rat liver microsomes
Description: as §1

[5] = target: T2, rat GnRH receptor (Rattus norvegicus, UniProt P30969); experiment: Radioligand binding: inhibition of 125I-GnRH-A binding to rat GnRH receptor (rat pituitary membranes); settings: read-out: Ki (nM), Inhibition Binding of 125I-GnRH-A to GnRH Receptors
T2 construct: or rat pituitaries (Pel Freez Biologicals, Rogers, Ark.) were homogenized; tissue Pel Freez Biologicals; host or cells: rat pituitaries (membrane preparation)
T2 sequence (P30969 1-327): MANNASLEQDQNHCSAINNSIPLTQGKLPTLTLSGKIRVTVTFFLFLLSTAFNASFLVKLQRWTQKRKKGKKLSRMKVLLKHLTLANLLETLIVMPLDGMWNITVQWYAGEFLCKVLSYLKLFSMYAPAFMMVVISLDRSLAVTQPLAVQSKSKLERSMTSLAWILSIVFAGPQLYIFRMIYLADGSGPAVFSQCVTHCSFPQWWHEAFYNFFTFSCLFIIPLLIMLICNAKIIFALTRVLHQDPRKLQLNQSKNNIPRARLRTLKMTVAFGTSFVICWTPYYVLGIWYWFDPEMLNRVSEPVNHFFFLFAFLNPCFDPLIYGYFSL
Summary of the method: as §2

[6] = In vitro metabolism: disappearance of parent compound in dog liver microsomes; format: in vitro ADME; settings: 5 uM compound, 30 minutes 37° C.
Description: as §1

[7] = In vitro metabolism: disappearance of parent compound in monkey liver microsomes; format: in vitro ADME; settings: 5 uM compound, 30 minutes 37° C.
Description: as §1

[8] = target: H S A (Homo sapiens, UniProt P02768); experiment: H S A column α; format: in vitro ADME
[9] = Pharmacokinetics in rats (jugular vein cannula, plasma LC-MS); format: in vivo, Rat
Description: Rats (male or female, 200-225 g) were prepared with indwelling jugular vein cannula as described by Harms et al., Applied Physiol. 36:391-398 (1974), and allowed to recover overnight with free access to the standard vivarium chow and water. […] […] The blood samples were withdrawn at specific times, plasma was immediately separated and compound extracted with ethyl acetate. The samples were analyzed by LC-MS using 30-90% gradient of ACN in 50 mM ammonium acetate.
The pharmacokinetic parameters were calculated using WinNonlin software (Scientific Consulting Inc.). The bioavailability was calculated as AUCp.o./AUCi.v., where AUCp.o. and AUC i.v. are areas under the plasma concentration-time curve after oral and i.v. administration, respectively.

[10] = Solubility at pH2 and pH6; format: physicochemical
[11] = female, rat, plasma, po, 10 mg/kg, female rat, 10 mg/kg as 5 mg/ml solution in 10% DMSO, 10% cremophor, 80% saline (footnote 5), read-out: FR Cmax
[12] = female, rat, plasma, po, 10 mg/kg, female rat, 10 mg/kg as 5 mg/ml solution in 10% DMSO, 10% cremophor, 80% saline (footnote 5), read-out: FR T1/2 hr (converted)
[13] = pH 6, aqueous buffer, pH6, read-out: Solubility μg/ml pH6
[14] = pH 2, simulated gastric fluid, pH2, read-out: Solubility μg/ml pH2

Sequence of H S A (P02768 25-609): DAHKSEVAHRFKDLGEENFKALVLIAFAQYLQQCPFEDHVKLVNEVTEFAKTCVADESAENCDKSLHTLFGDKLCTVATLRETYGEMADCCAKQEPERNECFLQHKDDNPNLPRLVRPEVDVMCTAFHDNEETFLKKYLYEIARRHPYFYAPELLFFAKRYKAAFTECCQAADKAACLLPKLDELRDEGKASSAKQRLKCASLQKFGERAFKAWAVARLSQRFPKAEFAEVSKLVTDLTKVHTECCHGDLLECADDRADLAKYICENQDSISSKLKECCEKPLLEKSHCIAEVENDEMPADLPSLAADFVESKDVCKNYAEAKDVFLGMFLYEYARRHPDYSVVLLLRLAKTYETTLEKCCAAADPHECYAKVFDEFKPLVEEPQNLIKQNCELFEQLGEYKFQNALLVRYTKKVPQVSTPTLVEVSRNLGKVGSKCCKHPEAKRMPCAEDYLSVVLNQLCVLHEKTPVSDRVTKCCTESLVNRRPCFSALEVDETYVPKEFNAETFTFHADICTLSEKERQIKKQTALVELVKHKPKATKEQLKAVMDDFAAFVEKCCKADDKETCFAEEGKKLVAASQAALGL

SMILES | Human % rem. 30′ [1] [%] | Rat plasma % remain [2] [%] | Ki [3] [nM] | Fem. Rat (FR) % rem. 30′ [4] [%] | Male Rat (MR) % rem. 30′ [4] [%] | Ki [5] [nM] | Dog % rem. 30′ [6] [%] | Monkey % rem. [7] [%] | H S A column α [8] | solubility [10, 13] [µg/mL] | also measured
COc1nc(NCCC#N)nc(OC)c1NC(=O)c1ccc(Cc2cc3c(cc2C)CCCC3(C)C)o1 [Example F2, 5-(3,8,8-Trimethyl-5,6,7,8-tetrahydro-naphthalen-2-ylmethyl)-furan-2-carboxylic acid [2-(2-cyano-ethylamino)-4,6-dimethoxy-pyrimidin-5-yl]-amide] | 70 | 100 | 1.3 | 100 | 74 | 1.7 | 85 | 2 | – | – | –
COc1nc(NCCCN(C)C)nc(OC)c1NC(=O)c1ccc(Cc2cc3c(cc2C)C(C)(C)OC3(C)C)o1 [Example D9, N-(2-{[3-(Dimethylamino)propyl]amino}-4,6-dimethoxypyrimidin-5-yl)-5-[(1,1,3,3,6-pentamethyl-1,3-dihydro-2-benzofuran-5-yl)methyl]-2-furamide] | 89 | 100 | 3 | 100 | 80 | 0.54 | 100 | 44 | 2 | – | FR Fp.o. ([9]; female rat, 10 mg/kg as 5 mg/ml solution in 10% DMSO, 10% cremophor, 80% saline (footnote 5)): 57%^5; Cmax [9, 11]: 800 nM; half-life [9, 12]: 4.3 h; Tmax ([9]; female, rat, plasma, po, 10 mg/kg, female rat, 10 mg/kg as 5 mg/ml solution in 10% DMSO, 10% cremophor, 80% saline (footnote 5), read-out: FR Tmax hr): 2 h
COCCOc1nc(OC)c(NC(=O)c2ccc(Cc3cc4c(cc3C)CCCC4(C)C)o2)c(OC)n1 [Example E1, 5-(3,8,8-Trimethyl-5,6,7,8-tetrahydro-naphthalen-2-ylmethyl)-furan-2-carboxylic acid [4,6-dimethoxy-2-(2-methoxy-ethoxy)-pyrimidin-5-yl]-amide] | 48 | – | 3.4 | 76 | 12 | 7 | 28 | 0 | – | 2 (≈ 3.92 µM) | –
COc1nc(N(C)C)nc(OC)c1NC(=O)c1ccc(Cc2cc3c(cc2C)C(C)(C)OC3(C)C)o1 [Example D8, N-[2-(Dimethylamino)-4,6-dimethoxypyrimidin-5-yl]-5-[(1,1,3,3,6-pentamethyl-1,3-dihydro-2-benzofuran-5-yl)methyl]-2-furamide] | 73 | 100 | 6 | 84 | 58 | 31 | 49 | 4 | 3 | – | –
COc1nc(NCCCN2CCOCC2)nc(OC)c1NC(=O)c1ccc(Cc2cc3c(cc2C)CCCC3(C)C)o1 [Example F1, 5-(3,8,8-Trimethyl-5,6,7,8-tetrahydro-naphthalen-2-ylmethyl)-furan-2-carboxylic acid [4,6-dimethoxy-2-(3-morpholin-4-yl-propylamino)-pyrimidin-5-yl]-amide] | 39 | – | 0.91 | 81 | 36 | 0.35 | 31 | 0 | – | 12 (≈ 20.8 µM) | –
COc1nc(NCCCN2CCOCC2)nc(OC)c1NC(=O)c1ccc(Cc2cc3c(cc2C)C(C)(C)OC3(C)C)o1 [Example D3, 5-(1,1,3,3,6-Pentamethyl-1,3-dihydro-isobenzofuran-5-ylmethyl)-furan-2-carboxylic Acid [4,6-dimethoxy-2-(3-morpholin-4-yl-propylamino)-pyrimidin-5-yl]-amide] | – | 100 | 24.5 | – | 22 | 0.4 | – | – | – | – | FR T1/2 hr ([9]; female rat, 10 mg/kg as 5 mg/ml solution in 10% DMSO, 10% cremophor, 80% saline (footnote 5), 10 mg/kg): 2.3 h; Cmax ([9]; female rat, 10 mg/kg as 5 mg/ml solution in 10% DMSO, 10% cremophor, 80% saline (footnote 5), 10 mg/kg, read-out: FR Cmax): 200 nM; Cmax [9, 11]: 400 nM; half-life [9, 12]: 1.6 h
COc1nc(NCCN2CCCC2)nc(OC)c1NC(=O)c1ccc(Cc2cc3c(cc2C)C(C)(C)OC3(C)C)o1 [Example D5] | 80 | – | 1.5 | 95 | 79 | 0.84 | 98 | 30 | 2 | > 30 | MR Fp.o. ([9]; male rat, male rats dosed orally at 50 mg/kg): 34%; Cmax ([9]; male, rat, plasma, oral, 50 mg/kg, male rat, male rats dosed orally at 50 mg/kg, read-out: MR Cmax): 700 nM; half-life ([9]; male, rat, plasma, oral, 50 mg/kg, male rat, male rats dosed orally at 50 mg/kg, read-out: MR T1/2 hr (converted)): 7 h; Tmax ([9]; male, rat, plasma, oral, 50 mg/kg, male rat, male rats dosed orally at 50 mg/kg, read-out: MR Tmax hr): 4 h; solubility [10, 14]: > 30 µg/mL
COc1nc(NCCNCCN)nc(OC)c1NC(=O)c1ccc(Cc2cc3c(cc2C)C(C)(C)OC3(C)C)o1 [Example D12, N-[2-({2-[(2-aminoethyl)amino]ethyl}amino)-4,6-dimethoxypyrimidin-5-yl]-5-[(1,1,3,3,6-pentamethyl-1,3-dihydro-2-benzofuran-5-yl)methyl]-2-furamide] | 81 | – | 1.2 | 80 | 54 | 0.8 | 59 | 37 | – | > 30 | solubility [10, 14]: > 30 µg/mL
COc1nc(NCCCNCCCN)nc(OC)c1NC(=O)c1ccc(Cc2cc3c(cc2C)C(C)(C)OC3(C)C)o1 [Example D17, N-[2-({3-[(3-Aminopropyl)amino]propyl}amino)-4,6-dimethoxypyrimidin-5-yl}-5-[(1,1,3,3,6-pentamethyl-1,3-dihydro-2-benzofuran-5-yl)methyl]-2-furamide] | 45 | – | 0.65 | 24 | 23 | 0.2 | 29 | 42 | 10 | – | –
